As a reminder, the pest or weed control is the degree to which the test organism was suppressed or injured, in per cent. Read a low pest or weed control as a weak effect.

The test system of experiment [1] is Blumeria graminis f. sp. tritici (Erysiphe graminis f. sp. tritici). Description: Example B7: Blumeria graminis f. sp. tritici / wheat / leaf disc preventative (powdery mildew on wheat). The settings on record: foliar, compared to untreated control. Type of experiment: in vivo. As to the method:
Example B7: Blumeria Graminis f. Sp. Tritici (Erysiphe graminis f. Sp. Tritici)/Wheat/Leaf Disc Preventative (Powdery Mildew on Wheat)
Wheat leaf segments cv. Kanzler are placed on agar in a multiwell plate (24-well format) and sprayed with the formulated test compound diluted in water. The leaf disks are inoculated by shaking powdery mildew infected plants above the test plates 1 day after application. The inoculated leaf disks are incubated at 20° C. and 60% rh under a light regime of 24 h darkness followed by 12 h light/12 h darkness in a climate chamber and the activity of a compound is assessed as percent disease control compared to untreated when an appropriate level of disease damage appears on untreated check leaf segments (6-8 days after application).

Experiment [2] relates to Botryotinia fuckeliana (Botrytis cinerea). Briefly: Example B2: Botryotinia fuckeliana (Botrytis cinerea) / liquid culture (gray mould). Type of experiment: cell-based. The settings on record: compared to untreated control. As to the method:
Example B2: Botryotinia fuckeliana (Botrytis cinerea)/Liquid Culture (Gray Mould)
Conidia of the fungus from cryogenic storage are directly mixed into nutrient broth (Vogels broth). After placing a (DMSO) solution of test compound into a microtiter plate (96-well format), the nutrient broth containing the fungal spores is added. The test plates are incubated at 24° C. and the inhibition of growth is determined photometrically 3-4 days after application.

Experiment [3] relates to Mycosphaerella graminicola (Septoria tritici). Briefly: Example B19: Mycosphaerella graminicola (Septoria tritici) / liquid culture (Septoria blotch). The experiment is classed as cell-based. The settings on record: Zymoseptoria tritici, compared to untreated control. As to the method:
Example B19: Mycosphaerella graminicola (Septoria tritici)/Liquid Culture (Septoria Blotch)
(§1) Conidia of the fungus from cryogenic storage are directly mixed into nutrient broth (PDB potato dextrose broth). After placing a (DMSO) solution of test compound into a microtiter plate (96-well format), the nutrient broth containing the fungal spores is added. The test plates are incubated at 24° C. and the inhibition of growth is determined photometrically 4-5 days after application.

For the next experiment, the system named is Pyrenophora teres. Briefly: Example B17: Pyrenophora teres / barley / leaf disc preventative (net blotch). The experiment is classed as in vivo. The settings on record: foliar, compared to untreated control. As to the method:
Example B17: Pyrenophora teres/Barley/Leaf Disc Preventative (Net Blotch)
Barley leaf segments cv. Hasso are placed on agar in a multiwell plate (24-well format) and sprayed with the formulated test compound diluted in water. The leaf segments are inoculated with a spore suspension of the fungus 2 days after application. The inoculated leaf segments are incubated at 20° C. and 65% rh under a light regime of 12 h light/12 h darkness in a climate cabinet and the activity of a compound is assessed as disease control compared to untreated when an appropriate level of disease damage appears in untreated check leaf segments (5-7 days after application).

The test system of experiment [4] is Glomerella lagenarium (Colletotrichum lagenarium). Description: Example B5: Glomerella lagenarium (Colletotrichum lagenarium) / liquid culture (anthracnose). Type of experiment: cell-based. The note with it: Colletotrichum orbiculare, compared to untreated control. As to the method: Example B5: Glomerella Lagenarium (Colletotrichum Lagenarium)/Liquid Culture (Anthracnose)
Conidia of the fungus from cryogenic storage are directly mixed into nutrient broth (PDB potato dextrose broth). After placing a (DMSO) solution of test compound into a microtiter plate (96-well format), the nutrient broth containing the fungal spores is added. The test plates are incubated at 24° C. and the inhibition of growth is measured photometrically 3-4 days after application.

In experiment [5] the test system is Mycosphaerella arachidis (Cercospora arachidicola). Description: Example B13: Mycosphaerella arachidis (Cercospora arachidicola) / liquid culture (early leaf spot). The settings on record: compared to untreated control. The experiment is classed as cell-based. As to the method: Example B13: Mycosphaerella arachidis (Cercospora arachidicola)/Liquid Culture (Early Leaf Spot)
as §1

The test system of experiment [6] is Monographella nivalis (Microdochium nivale). Description: Example B12: Monographella nivalis (Microdochium nivale) / liquid culture (foot rot cereals). The settings on record: compared to untreated control. Type of experiment: cell-based. As to the method: Example B12: Monographella Nivalis (Microdochium Nivale)/Liquid Culture (Foot Rot Cereals)
as §1

The test system of the next experiment is Fusarium culmorum. Description: microbe, parasite or virus in culture. The settings on record: read-out: control of Fusarium culmorum. The experiment is classed as cell-based.
The test system of experiment [7] is Puccinia recondita f. sp. tritici. Briefly: Example B15: Puccinia recondita f. sp. tritici / wheat / leaf disc preventative (brown rust). The experiment is classed as in vivo. The settings on record: 200 ppm, compared to untreated control. As to the method: Example B15: Puccinia recondita f. Sp. Tritici/Wheat/Leaf Disc Preventative (Brown Rust)
Wheat leaf segments cv. Kanzler are placed on agar in multiwell plates (24-well format) and sprayed with the formulated test compound diluted in water. The leaf disks are inoculated with a spore suspension of the fungus 1 day after application. The inoculated leaf segments are incubated at 19° C. and 75% rh under a light regime of 12 h light/12 h darkness in a climate cabinet and the activity of a compound is assessed as percent disease control compared to untreated when an appropriate level of disease damage appears in untreated check leaf segments (7-9 days after application).

Each structure is given as a SMILES string. Some results are limits rather than exact numbers.

As to `Cn1cc(C(C)(CNC(=O)c2nnc(-c3ncc(F)cc3F)s2)c2cccc(C#N)n2)cn1` (centres unmarked) [X.14, N-[2-(6-cyano-2-pyridyl)-2-(1-methylpyrazol-4-yl)propyl]-5-(3,5-difluoro-2-pyridyl)-1,3,4-thiadiazole-2-carboxamide], the pest or weed control at 200 ppm (in experiment [1]; in the experiment with Pyrenophora teres) was not below 80% in each case. In addition, the inhibition of growth at 20 ppm in experiment [2], in experiment [3] and in [4] was not below 80% each time.

As for `Cn1cc(C(C)(CNC(=O)c2nnc(-c3ncc(F)cc3F)s2)c2cccc(Cl)n2)cn1` (centres unmarked) [X.15, N-[2-(6-chloro-2-pyridyl)-2-(1-methylpyrazol-4-yl)propyl]-5-(3,5-difluoro-2-pyridyl)-1,3,4-thiadiazole-2-carboxamide], the pest or weed control at 200 ppm (in [1]; in the experiment with Pyrenophora teres) was not below 80% each time. In addition, the inhibition of growth at 20 ppm (in [2]; in [3]; in [5]; in experiment [4]; in experiment [6]; in the experiment with Fusarium culmorum) was not below 80% throughout.

For the compound `Cn1cc(C(C)(CNC(=O)c2cc(-c3ncc(F)cc3F)on2)c2cccc(Cl)n2)cn1` (centres unmarked) [X.11, N-[2-(6-chloro-2-pyridyl)-2-(1-methylpyrazol-4-yl)propyl]-5-(3,5-difluoro-2-pyridyl)isoxazole-3-carboxamide], in [1], the pest or weed control at 200 ppm was not below 80%. Besides, the inhibition of growth at 20 ppm (in experiment [2]; in experiment [3]; in [5]; in [4]; in experiment [6]; in the experiment on Fusarium culmorum) was not below 80% in each case.

Turning to `Cn1cc(C(C)(CNC(=O)c2cc(-c3ccc(F)cc3F)on2)c2cccc(Cl)n2)cn1` (centres unmarked) [X.01, N-[2-(6-chloro-2-pyridyl)-2-(1-methylpyrazol-4-yl)propyl]-5-(2,4-difluorophenyl)isoxazole-3-carboxamide], the “control of Puccinia recondita f. sp. tritici” value in experiment [7] is reported as “at least 80%”.

In the case of `Cn1cc(C(C)(CNC(=O)c2nnc(-c3ccc(F)nc3F)s2)c2cccc(Cl)n2)cn1` (centres unmarked) [X.16, N-[2-(6-chloro-2-pyridyl)-2-(1-methylpyrazol-4-yl)propyl]-5-(2,6-difluoro-3-pyridyl)-1,3,4-thiadiazole-2-carboxamide], the inhibition of growth at 20 ppm in [2], in [3], in experiment [5], in [4] and in [6] was not below 80% each time.

These data come from patent US20260223852A1, “FUNGICIDAL COMPOSITIONS” (SYNGENTA CROP PROTECTION AG, priority 2023, published 2026).
